As usually defined, the IC50 is the concentration needed to halve the response being measured. The low end stands for higher potency, the high end for lower potency.

For data set [1], the system named is breast adenocarcinoma (MCF7) cells. The experiment in a line: Antiproliferative MTT assay, MCF-7. The settings on record: for IC50: Homo sapiens, MCF7, 72 h incubation, MTT, mean ± SD. Type of data set: cell-based, human. A digest of the protocol:
(§1)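 Seeding density followed doubling time: 3000 cells per well for the cancer lines, 5000 for normal fibroblasts. Test substances, freshly diluted from 0.01 to 100 µM, were incubated with the cells for 72 h before MTT measurement of growth rate. IC50 values came from linear regression of dose–response curves.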
In general terms: Formazan colour is commonly taken as a measure of viable cells.

For data set [2], the system named is normal skin fibroblasts (HFF-1). The experiment in a line: Cytotoxicity MTT assay, normal skin fibroblasts. Type of data set: cell-based, human. The settings on record: Homo sapiens, HFF-1, 72 h, 72 h incubation, mean ± SD. A digest of the protocol: as §1
Data set [3] has as its system pancreatic ductal adenocarcinoma (CFPAC-1) cells. The experiment in a line: Antiproliferative MTT assay, CFPAC-1. It counts as cell-based, human. To be noted: for IC50: 72 h incubation, MTT, mean ± SD. An outline of the steps:
as §1

Data set [4] in a line: Hydrolytic stability in aqueous buffer (UV/Vis). It counts as physicochemical. The settings on record: phosphate buffer/DMSO 99:1, pH 7.4, 1 × 10⁻⁴ mol dm⁻³, UV/Vis spectra over 24 h. From the text:
Solvents and chemicals, including starting purines and purine bioisosters 1–5, as well as para-substituted 2-phenyloxiranes 11–15 and phenacyl bromide 21–25, were purchased from Sigma-Aldrich (St. Louis, MO, USA), Alfa Aesar (Haverhill, MA, USA), and Fisher Scientific International (Pittsburgh, PA, USA). The progress of all reactions was monitored by thin layer chromatography on pre-coated Merck (Darmstadt, Germany) silica gel plates 60F254. The synthesized compounds were purified via column chromatography using Fluka (Buchs, Switzerland) silica gel (0.063−0.2 mm) and the appropriate solvent. All NMR spectra were recorded using a Bruker 300, 400, and 600 MHz NMR spectrometer (Bruker Biospin, Rheinstetten, Germany) in deuterated DMSO solutions, with TMS as the internal standard. The melting points of all newly synthesized compounds were determined using a Koffler (Reichert, Vienna) hot stage microscope. The ^1H (δ/ppm) and ^13C NMR (δ/ppm) spectra of compounds 26a,b–49a,b can be found in the Supporting Information (Figures S1–S48). The purity of all newly synthesized compounds was determined by elemental analysis and the elemental analysis results are within 0.5% of the theoretical values. The UV/Vis absorption spectra of compounds 40a, 45a, and 49b were measured at a concentration of 1 × 10⁻⁴ mol dm⁻³ in phosphate buffer and DMSO (99:1, v/v) at pH 7.4 using a Varian Cary 50 spectrophotometer in double-beam mode at 25 °C.
Selected 6-chloropurine (40a), 4-chloropyrrolo[2,3-d]pyrimidine (45a), and 4-chloroimidazo[4,5-c]pyridine (49b) with significant antiproliferative activity were examined for hydrolytic stability in an aqueous buffer solution.
2. UV/Vis absorption spectra of selected compounds
Figure S49. UV/Vis absorption spectra of compounds 40a (a), 45a (b), and 49b (c) recorded in phosphate buffer with 1% DMSO (99:1, v/v) at pH 7.4 (c = 1 × 10⁻⁴ mol dm⁻³). Spectra were measured immediately after sample preparation and after 24 hours to evaluate spectral stability over time.
(1 picture or pasted object on this page, not shown here)

Consider `OCC(c1ccc(C(F)(F)F)cc1)n1cc(Cn2ccc3c(Cl)ncnc32)nn1` (centres unmarked) [Compound 45a, 4-Chloro-7-((1-(2-hydroxy-1-(4-(trifluoromethyl)phenyl)ethyl)-1H-1,2,3-triazol-4-yl)methyl)-7H-pyrrolo[2,3-d]pyrimidine], for which the IC50 in data set [1] was 0.5 ± 0.1 µM; in data set [2] it was 20 ± 4.7 µM; in data set [3], 1 ± 0.7 µM; in data set [3] (Homo sapiens, CFPAC-1, 72 h), 1 to 8 µM. Also, in data set [1] (SI = [IC50 HFF]/[IC50 MCF-7]), the “SI (MCF-7)” value turned out to be 40. Also, the “SI (CFPAC-1)” value in data set [3] (SI = [IC50 HFF]/[IC50 CFPAC-1]) was determined as 20.0. Further, the hydrolytic stability entry in data set [4] is given as “hydrolytically stable”.
`OC(Cn1cc(Cn2cnc3c(Cl)nccc32)nn1)c1ccc(Br)cc1` (centres unmarked) [Compound 49b, 4-Chloro-1-((1-(2-hydroxy-2-(4-bromophenyl)ethyl)-1H-1,2,3-triazol-4-yl)methyl)-1H-imidazo[4,5-c]pyridine]: the IC50 in data set [1] stood at 46 µM; in data set [2], 21 ± 5.8 µM; in data set [3] (Homo sapiens, CFPAC-1, 72 h) it was 21 ± 0.7 µM. The hydrolytic stability result in data set [4] is listed as “hydrolytically stable”.

For the origin of these results see article PMC11940194, “Synthesis, Antiproliferative Activity, and ADME Profiling of Novel Racemic and Optically Pure Aryl-Substituted Purines and Purine Bioisosteres” (Biomolecules, 2025).
